Assay results published in patent US20090088380A1, “GHRH ANALOGS AND THERAPEUTIC USES THEREOF” (priority 2007, published 2009).
Non-standard residues stand in square brackets, D forms with d. Residues, ends and D or L forms follow the SMILES beside them.

Test system: Rat Growth Hormone
Test: In vivo GH secretion in adult female Sprague-Dawley rats, single SC or IV injection, RIA
Settings: for GH AUC 45 min / GH AUC 300 min / GH AUC 120 min: in ng·min/mL (unit assumed)
Protocol: In order to assess such use of the GHRH analogs, the following experiments were undertaken. More specially, the goal was to assess the pharmacodynamic and pharmacokinetic profiles and acute toxicity of GHRH analog #5 when administered once by subcutaneous or intravenous injection to female Sprague-Dawley rats followed by a 14-day observation period and the pharmacodynamic profile in a male Beagle dog when the GHRH analog was administered at escalating doses to the same dog by subcutaneous injection with at least 2-day washout period. The above GHRH analog is a variation of a synthetic acetate salt of an amidated synthetic 29-amino acid peptide that corresponds to the amino-terminal segment of the naturally-occurring human growth hormone—releasing hormone (GHRH) with four amino acid substitutions in positions 2, 10, 15, and 22.
Human GHRH analog #5 in 0.9% sodium chloride for injection USP was administered once either by intravenous (IV) or subcutaneous (SC) injection to female rats followed by a 14-day observation period, as shown in Table 2. Prior to administration, all dosing formulations were filtered using a 0.22 μm filter to ensure sterility. The actual amount of GHRH analog #5 administered was calculated and adjusted based on the animal's most recent body weight. Dosing started at approximately the same time each day, commencing at 9:00 am ±30 minutes.
For pharmacodynamic investigations, blood samples (approximately 1.3 ml) were collected from 2 animals per group per time point (maximum 3 time points/animal) via a jugular venipuncture at the following time points: […] All blood samples were collected into potassium EDTA tubes and centrifuged under refrigeration (2 to 8° C., 1500 g for 10 minutes).
Rat Growth Hormone Determination • Plasma GH was determined by Linco Diagnostic Services using their own kit. Linco's Rat Growth Hormone radioimmunoassay kit (RIA) (RGH-45HK) is intended for the quantitative determination of Rat Growth Hormone in serum, plasma, and tissue culture media. It is a completely homologous assay since the antibody was raised against recombinant Rat Growth Hormone and both the tracer and the standard are prepared with the same recombinant Rat Growth Hormone. The kit includes standards, antibody, tracer, quality controls, precipitating reagents and buffer necessary to complete a RIA. The assay was conducted under the following conditions: overnight; equilibrium incubation at room temperature; sample volume: 100 μl serum, plasma, or cell culture media. The label used was 125I-Rat Growth Hormone (20,000 CPM/tube).

## CC[C@H](C)[C@H](NC(=O)[C@H](C)NC(=O)[C@H](CC(=O)O)NC(=O)[C@@H](C)NC(=O)[C@@H](N)Cc1ccc(O)cc1)C(=O)N[C@@H](Cc1ccccc1)C(=O)N[C@H](C(=O)N[C@@H](CC(N)=O)C(=O)N[C@@H](CO)C(=O)N[C@H](Cc1ccc(O)cc1)C(=O)N[C@@H](CCCNC(=N)N)C(=O)N[C@@H](CCCCN)C(=O)N[C@H](C(=O)N[C@@H](CC(C)C)C(=O)N[C@H](C)C(=O)N[C@@H](CCC(N)=O)C(=O)N[C@@H](CC(C)C)C(=O)N[C@@H](CO)C(=O)N[C@@H](C)C(=O)N[C@@H](CCCNC(=N)N)C(=O)N[C@@H](CCCCN)C(=O)N[C@@H](CCCCN)C(=O)N[C@@H](CC(C)C)C(=O)N[C@@H](CCC(N)=O)C(=O)N[C@@H](CC(=O)O)C(=O)N[C@H](C(=O)N[C@@H](CCSC)C(=O)N[C@@H](CO)C(=O)N[C@@H](CCCNC(=N)N)C(N)=O)[C@@H](C)CC)C(C)C)[C@@H](C)O [GHRH analog #5, [D-Ala^2, D-Tyr^10, D-Ala^15, Lys^22] hGHRH(1-29)-NH2] (H-Y[dA]DAIFTNS[dY]RKVL[dA]QLSARKKLQDIMSR-NH2)
0.001 mg/kg BW IV, 4 min
  Plasma Rat Growth Hormone: 26.2 ng/mL
0.001 mg/kg BW IV, 10 min
  Plasma Rat Growth Hormone: 25.85 ng/mL
0.001 mg/kg BW IV, 15 min
  Plasma Rat Growth Hormone: 34.65 ng/mL
0.001 mg/kg BW IV, 45 min
  Plasma Rat Growth Hormone: 21.15 ng/mL
0.001 mg/kg BW IV, 300 min
  Plasma Rat Growth Hormone: 67.15 ng/mL
0.001 mg/kg BW IV
  GH AUC 45 min: 1197
  GH AUC 300 min: 12280
0.001 mg/kg BW IV, −120 min
  Plasma Rat Growth Hormone: 23.85 ng/mL
0.001 mg/kg BW SC, 15 min
  Plasma Rat Growth Hormone: 36.7 ng/mL
0.001 mg/kg BW SC, 30 min
  Plasma Rat Growth Hormone: 14.2 ng/mL
0.001 mg/kg BW SC, 60 min
  Plasma Rat Growth Hormone: 26.85 ng/mL
0.001 mg/kg BW SC, 120 min
  Plasma Rat Growth Hormone: 17.8 ng/mL
0.001 mg/kg BW SC, 300 min
  Plasma Rat Growth Hormone: 21.85 ng/mL
0.001 mg/kg BW SC
  GH AUC 120 min: 2914
  GH AUC 300 min: 6482
0.001 mg/kg BW SC, −120 min
  Plasma Rat Growth Hormone: 20.15 ng/mL
0.01 mg/kg BW SC, 15 min
  Plasma Rat Growth Hormone: 190.4 ng/mL
0.01 mg/kg BW SC, 30 min
  Plasma Rat Growth Hormone: 31.9 ng/mL
0.01 mg/kg BW SC, 60 min
  Plasma Rat Growth Hormone: 8.5 ng/mL
0.01 mg/kg BW SC, 120 min
  Plasma Rat Growth Hormone: 7.6 ng/mL
0.01 mg/kg BW SC, 300 min
  Plasma Rat Growth Hormone: 11.95 ng/mL
0.01 mg/kg BW SC
  GH AUC 120 min: 5153
  GH AUC 300 min: 6913
0.01 mg/kg BW SC, −120 min
  Plasma Rat Growth Hormone: 20.4 ng/mL
0.03 mg/kg BW IV, 4 min
  Plasma Rat Growth Hormone: 68.45 ng/mL
0.03 mg/kg BW IV, 10 min
  Plasma Rat Growth Hormone: 254.65 ng/mL
0.03 mg/kg BW IV, 15 min
  Plasma Rat Growth Hormone: 75.1 ng/mL
0.03 mg/kg BW IV, 45 min
  Plasma Rat Growth Hormone: 33.4 ng/mL
0.03 mg/kg BW IV, 300 min
  Plasma Rat Growth Hormone: 38.75 ng/mL
0.03 mg/kg BW IV
  GH AUC 45 min: 3407
  GH AUC 300 min: 12060
0.03 mg/kg BW IV, −120 min
  Plasma Rat Growth Hormone: 43.15 ng/mL
0.03 mg/kg BW SC, 15 min
  Plasma Rat Growth Hormone: 240.9 ng/mL
0.03 mg/kg BW SC, 30 min
  Plasma Rat Growth Hormone: 39.05 ng/mL
0.03 mg/kg BW SC, 60 min
  Plasma Rat Growth Hormone: 9.5 ng/mL
0.03 mg/kg BW SC, 120 min
  Plasma Rat Growth Hormone: 4.6 ng/mL
0.03 mg/kg BW SC, 300 min
  Plasma Rat Growth Hormone: 11.25 ng/mL
0.03 mg/kg BW SC
  GH AUC 120 min: 6192
  GH AUC 300 min: 7618
0.03 mg/kg BW SC, −120 min
  Plasma Rat Growth Hormone: 36.1 ng/mL
0.1 mg/kg BW SC, 15 min
  Plasma Rat Growth Hormone: 252.4 ng/mL
0.1 mg/kg BW SC, 30 min
  Plasma Rat Growth Hormone: 43.8 ng/mL
0.1 mg/kg BW SC, 60 min
  Plasma Rat Growth Hormone: 7.65 ng/mL
0.1 mg/kg BW SC, 120 min
  Plasma Rat Growth Hormone: 4.45 ng/mL
0.1 mg/kg BW SC, 300 min
  Plasma Rat Growth Hormone: 18.7 ng/mL
0.1 mg/kg BW SC
  GH AUC 120 min: 6423
  GH AUC 300 min: 8507
0.1 mg/kg BW SC, −120 min
  Plasma Rat Growth Hormone: 20.4 ng/mL
0.3 mg/kg BW SC, 15 min
  Plasma Rat Growth Hormone: 247.9 ng/mL
0.3 mg/kg BW SC, 30 min
  Plasma Rat Growth Hormone: 133.5 ng/mL
0.3 mg/kg BW SC, 60 min
  Plasma Rat Growth Hormone: 16.75 ng/mL
0.3 mg/kg BW SC, 120 min
  Plasma Rat Growth Hormone: 4.00 ng/mL
0.3 mg/kg BW SC, 300 min
  Plasma Rat Growth Hormone: 21.8 ng/mL
0.3 mg/kg BW SC
  GH AUC 120 min: 8636
  GH AUC 300 min: 10958
0.3 mg/kg BW SC, −120 min
  Plasma Rat Growth Hormone: 20.7 ng/mL
1.00 mg/kg BW SC, 15 min
  Plasma Rat Growth Hormone: 270.0 ng/mL
1.00 mg/kg BW SC, 30 min
  Plasma Rat Growth Hormone: 155.85 ng/mL
1.00 mg/kg BW SC, 60 min
  Plasma Rat Growth Hormone: 24.35 ng/mL
1.00 mg/kg BW SC, 120 min
  Plasma Rat Growth Hormone: 15.85 ng/mL
1.00 mg/kg BW SC, 300 min
  Plasma Rat Growth Hormone: 28.85 ng/mL
1.0 mg/kg BW SC
  GH AUC 120 min: 10425
  GH AUC 300 min: 14448
1.00 mg/kg BW SC, −120 min
  Plasma Rat Growth Hormone: 88.95 ng/mL
3.0 mg/kg BW IV, 4 min
  Plasma Rat Growth Hormone: 38.7 ng/mL
3.0 mg/kg BW IV, 10 min
  Plasma Rat Growth Hormone: 36.95 ng/mL
3.0 mg/kg BW IV, 15 min
  Plasma Rat Growth Hormone: 83.65 ng/mL
3.0 mg/kg BW IV, 45 min
  Plasma Rat Growth Hormone: 41.6 ng/mL
3.0 mg/kg BW IV, 300 min
  Plasma Rat Growth Hormone: 56.7 ng/mL
3.0 mg/kg BW IV
  GH AUC 45 min: 2384
  GH AUC 300 min: 14299
3.0 mg/kg BW IV, −120 min
  Plasma Rat Growth Hormone: 48.6 ng/mL
3.00 mg/kg BW SC, 15 min
  Plasma Rat Growth Hormone: 453.0 ng/mL
3.00 mg/kg BW SC, 30 min
  Plasma Rat Growth Hormone: 181.55 ng/mL
3.00 mg/kg BW SC, 60 min
  Plasma Rat Growth Hormone: 59.4 ng/mL
3.00 mg/kg BW SC, 120 min
  Plasma Rat Growth Hormone: 4.45 ng/mL
3.00 mg/kg BW SC, 300 min
  Plasma Rat Growth Hormone: 47.9 ng/mL
3.0 mg/kg BW SC
  GH AUC 120 min: 15562
  GH AUC 300 min: 20273
3.00 mg/kg BW SC, −120 min
  Plasma Rat Growth Hormone: 20.05 ng/mL
rat
  GH secretion compared with natural hGHRH(1-44)NH2 (pulse amplitude and AUC): twice larger
Rat and dog
  In vivo potency compared with the natural 44 amino acid GHRH: at least two times more potent in vivo
rat, highest single IV dose
  Somatotroph desensitization: induced transient somatotroph desensitization
rat, intravenous and subcutaneous
  GH secretion into peripheral blood, dose dependence: dose-dependent response
rat, intravenous injection
  Time of peak GH secretion: 4 to 10 min
rat, single subcutaneous injection
  Time of peak GH secretion: 10 to 15 min
